Earlier results in patent US20090247521A1, “SOLUBLE EPOXIDE HYDROLASE INHIBITORS FOR THE TREATMENT OF ENDOTHELIAL DYSFUNCTION” (Arete Therapeutics, Inc., priority 2007, published 2009).

System: thoracic aortic rings
Details: aortic rings from DOCA-salt hypertensive rats that received the s-EH inhibitor, compared with vehicle and normotensive controls

## CCCCCCCCCCCCNC(=O)NC12CC3CC(CC(C3)C1)C2 [ADU, adamantyl dodecyl urea]
  acetylcholine-induced endothelium-dependent vasorelaxation: augmented acetylcholine-induced endothelium-dependent vasorelaxation, similar to that of the normotensive control animals
